The source of these data is PubChem BioAssay AID588698 (Southern Research Specialized Biocontainment Screening …, 2011).

Results filed as inconclusive are left out. The source made the active and inactive calls.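 Rule for the calls: active = inhibition of 30% or more at any tested concentration; inactive = the rest, inconclusive results apart.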

The target of the first test is M1-family alanyl aminopeptidase (Plasmodium falciparum 3D7). The test is described as follows: PfM1AAP enzyme inhibition, dose response, selectivity assay for PfM17LAP inhibitor project, biochemical, QFRET, H-Leu-NHMec substrate (AID 588698). To be noted: recombinant PfM1AAP, H-Leu-NHMec fluorogenic substrate cleavage.
On to `O=C(Cc1cccc2ccccc12)NO`, for which the half-inhibitory concentration (IC50) is 79.4 µM.
Still for that read-out and setting: to `O=C(Cc1ccc2ccccc2c1)NO` belongs 33.7 µM.

Still in this test, the particulars now being: recombinant PfM1AAP, H-Leu-NHMec fluorogenic substrate cleavage; at 100 µM (top of the series).
On to `COC(=O)c1cc(OC)c(OC)cc1NC(=O)c1sc2nc(C)ccc2c1N`, for which the inhibition entry was “inactive”.
Turning to `NC(N)=NCCC[C@H](N)C(=O)NO`, the inhibition entry was “inactive”.
For `COC(=O)c1c(NC(=O)C2CC=CCC2C(=O)O)sc(C)c1-c1ccc(C)cc1` (stereo not drawn), the inhibition result was “inactive”.
On to `O=C(CSc1nc(O)cc(=O)[nH]1)Nc1ccccc1`, for which the inhibition result is “inactive”.
As to `CC1=C(C)CC(C(=O)Nc2ccc(Oc3ccc(Cl)cc3)cc2)C(C(=O)O)C1` (stereo not drawn), the inhibition result was “inactive”.
On the same count and under the same terms, then `O=C(Nc1ccc(Cl)cc1)Nc1ccccc1C(=O)O`, with “inactive”.
As for `CCn1c2ccccc2c2cc(NC(=O)CSc3nc(C)cc(=O)[nH]3)ccc21`, the inhibition entry was “inactive”.
Turning to `Cc1cc(SCC(=O)Nc2ccccc2C(=O)O)nc2ccccc12`, the inhibition entry was “inactive”.
Regarding `COc1cc(NC(=O)CSc2ccccc2)c(C(=O)O)cc1OC`, the inhibition entry was “inactive”.
The same measure, in the same setting: then `COc1ccc(OCCC(=O)NO)cc1`, with “inactive”.
`CC(C)C[C@H](N)C(=O)NO`: the inhibition result was “inactive”.
For `CC1=C(C)CC(C(=O)Nc2nc(-c3cc(C)ccc3C)c(C)s2)C(C(=O)O)C1` (stereo not drawn), the inhibition result is “inactive”.
Same read-out and setting: then `COC(=O)c1c(NC(=O)C2CCCCC2C(=O)O)sc2c1CCC(c1ccccc1)C2` (stereo not drawn), with “inactive”; and `O=C1OCCC1Sc1nnc(NC2CCCCC2)s1` (stereo not drawn), with “inactive”; and `COc1ccc(-c2nnc(NC(=O)C3CC(C)=C(C)CC3C(=O)O)s2)cc1` (stereo not drawn), with “inactive”.
On the same count and under the same terms, to `COC(=O)c1ccccc1NC(=O)c1ccc2c(Cl)c3c(nc2c1)CCC3` belongs “inactive”; to `COc1cc(NC(=O)c2ccc(-c3ccccc3)cc2)c(C(=O)O)cc1OC`, “inactive”; to `Cc1ccc(NC(=O)CSc2nc(O)cc(=O)n2Cc2ccccc2)cc1`, “inactive”.
`O=C(CSc1nccc(=O)[nH]1)Nc1ccc(Oc2ccccc2)cc1`: the inhibition entry is “inactive”.
Same read-out and setting: to `COC(=O)c1c(NC(=O)c2ccccc2C(=O)O)sc2c1CCCC2` belongs “inactive”; to `COC(=O)c1ccccc1NC(=O)c1cc2cc3ccc(C)cc3nc2s1`, “inactive”.
Same read-out and setting: then `O=C(CSc1nccc(=O)[nH]1)Nc1ccc(N2CCOCC2)cc1`, with “inactive”; and `CC1CCc2sc(C(=O)Nc3cccc4c3C(=O)NC4)cc2C1` (stereo not drawn), with “inactive”.
`Cc1cc(=O)[nH]c(SCC(=O)Nc2ccccc2)n1`: the inhibition entry was “inactive”.
For the molecule `O=C(O)c1ccccc1C(=O)Nc1nc2c(s1)CCCC2`, the inhibition entry was “inactive”.
Still for that read-out and setting: then `CCC(C)(C)C1CCc2c(sc(NC(=O)C3CC(C)=C(C)CC3C(=O)O)c2C(=O)OC)C1` (stereo not drawn), with “inactive”.

The IC50 is the concentration that gives 50% inhibition.
